Test results taken from patent US20260248869A1, “SILICONE GEL COMPOSITION OF WALNUT EXTRACT” (priority 2022, published 2026).

Test: Confocal optical microscopy of Juglone penetration depth in human skin
Type: in vitro ADME
Settings: epidermal region; signal disappeared at greater depths
Excerpt: The penetration in human skin was also studied by confocal microscopy, using the fluorescence of the Juglone molecule exciting it with light of 488 nm and observing its fluorescence in a window from 510 to 702 nm. For this penetration study, a Leica microscope, model SPE Confocal Microscope was used, with a 10×lens. The location of the Juglone molecules in depth was established with this instrument (in perpendicular direction to the skin surface). The accumulation of Juglone at different depth levels causes the appearance of areas with different fluorescence intensity and allows to observe directly where the molecule is retained. It must be noted that white Caucasian skins were chosen to prevent interferences of basal fluorescence and thus clearly observe the fluorescence of the Juglone molecule.
The transdermal permeation study was performed according to the “Guidance document for the conduct of skin absorption studies”. OECD series on testing assessment. Number 28. ENV/JM/MONO (2004) 2.5 Mar. 2004. Using Franz type cells, of 1.80 cm in diameter, and a surface of 2.54 cm^2. The permeation membrane used was human skin of the abdominal area (0.400 mm thick) from repair surgery and previously treated. This thickness covers the epidermis and dermis above the vascular plexus. […]

O=C1C=CC(=O)c2c(O)cccc21 [Juglone, 5-hydroxy-1,4-naphthalenedione]
Depth at which the specific fluorescence of Juglone is maintained: less than 120 μm
